Results on one compound are retold here after publication PMC12365925, “Structural insights into a bacterial terpene cyclase fused with haloacid Dehalogenase-like phosphatase” (Chemical Science, 2025).

In this assay the target is T1, AsDMS (wild-type drimenol synthase) (Aquimarina spongiae, UniProt A0A1M6CXF0).
T1 construct: gene SAMN04488508_102320; wild-type, bifunctional N-terminal HAD and C-terminal TCbeta domains; dimer by gel filtration
The assay can be described thus: steady-state kinetics of dephosphorylation. To be noted: HAD domain phosphatase site, Mg2+-dependent. Type of assay: biochemical.

T1 sequence (A0A1M6CXF0 entry or part of it): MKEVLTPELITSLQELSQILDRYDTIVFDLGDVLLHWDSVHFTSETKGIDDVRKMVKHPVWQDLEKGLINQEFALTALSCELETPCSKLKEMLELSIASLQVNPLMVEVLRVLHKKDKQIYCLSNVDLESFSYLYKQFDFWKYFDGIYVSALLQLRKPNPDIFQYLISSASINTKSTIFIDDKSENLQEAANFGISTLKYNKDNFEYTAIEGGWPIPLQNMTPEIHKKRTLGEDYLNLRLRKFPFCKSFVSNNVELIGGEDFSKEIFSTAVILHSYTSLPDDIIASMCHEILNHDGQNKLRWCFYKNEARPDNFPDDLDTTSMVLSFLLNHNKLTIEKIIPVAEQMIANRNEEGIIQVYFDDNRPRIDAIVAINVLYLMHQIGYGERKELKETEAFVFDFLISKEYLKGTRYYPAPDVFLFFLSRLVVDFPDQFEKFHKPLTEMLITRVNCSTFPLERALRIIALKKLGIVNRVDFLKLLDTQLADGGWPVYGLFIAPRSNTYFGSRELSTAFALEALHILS

For the compound `CC1=CC[C@H]2C(C)(C)CCC[C@]2(C)[C@H]1COP(=O)(O)O` [compound 3, drimenyl monophosphate], the Km was determined as 5.81 ± 0.81 µM.
